We go through 1 molecule from article PMC6853232, “Discovery and evaluation of novel synthetic 5-alkyl-4-oxo-4,5-dihydro-[1,2,4]triazolo[4,3-a]quinoxaline-1-carbox-amide derivatives as anti-inflammatory agents” (Journal of Enzyme Inhibition and Medicinal Chemistry, 2019).

The nature of data set [1]: MTT assay for cell viability. The data set is classed as cell-based, mouse. Conditions: mouse, RAW264.7 macrophage cells; 30 μM, 24 h, RAW264.7 cells. As to the method: The RAW 264.7 mouse macrophage cell line was obtained from the China Cell Line Bank (Beijing, China). Cells were cultured in complete medium (DMEM supplemented with 10% heat-inactivated FBS, 3 mM glutamine and antibiotics (100 U/mL penicillin and 100 U/mL streptomycin)) at 37 °C in a humidified incubator containing 5% CO2 and 95% air. […]
Cell viability studies induced by synthesised compounds were evaluated by 3-(4,5-dimethylthiazol-2-yl)-2,5-diphenyltetrazolium bromide (MTT) assay. RAW264.7 macrophages were seeded in 96-well plates at a density of 5 × 10^5 cells/mL in complete medium and incubated for 24 h (100 µL/well). Then the cells were treated with different concentrations of synthesised compounds for 24 h. 150 µL MTT (5 g/L in PBS) was added to each well and the cells were further incubated for 4 h. The supernatant was removed and the cells were lysed with 150 µL/well DMSO. The optical density was measured at 570 nm on a microplate reader (Thermo Scientific, MA, USA).

Data set [2] deals with carrageenan-induced paw oedema. Briefly: Carrageenan-induced paw oedema model. Conditions: 25 mg/kg p.o., n = 4. It is filed as in vivo, rats. The text has this:
The animal procedures were in strict accordance with the National Institutes of Healthy Guidelines for the Care and Use of Laboratory Animals (NIH Publication No. 85-23, revised 1996) and were approved by the Institutional Animal Care and Utilisation Committee of Yanbian University. Male albino rats weighing 280–300 gwere obtained from Animal Department of Yanbian University . They were kept in the animal house under standard condition of light and temperature with free access to food and water. The animals were randomly divided into five groups (control, D1, 6p, ibuprofen and celecoxib group) The groups with D1, 6p, ibuprofen and celecoxib were administered oral administration (p.o.) 25 mg/kg in a vehicle of 0.5% methylcellulose, respectively. The negative control group was treated with the same vehicle (0.5% methylcellulose). A solution of carrageenan (0.1 ml, 1.0% w/v in 0.9% of normal saline) was injected into the subplanter region of the left hind paw under light ether anaesthesia 1 h after oral administration (p.o.) of the test compound (at a dose level of 25 mg/kg body weight). The paw volume was measured at hourly interval for 5 h (0, 1, 3 and 5 h) and the percent inhibition of oedema was calculated using formula: %Inhibition=(Vt−Vo)control−(Vt−Vo)tested compound /(Vt−Vo)control×100 where, • Vo = volume of oedema at zero time interval. • Vt = volume of oedema at specific time interval.
For orientation: The carrageenan paw model is a standard test of acute inflammation.

Data set [3] has as its system LPS-induced NO production in RAW264.7 macrophages. Put plainly: Inhibition of LPS-induced NO production (Griess). The data set is classed as cell-based, mouse. The protocol: The RAW 264.7 mouse macrophage cell line was obtained from the China Cell Line Bank (Beijing, China). Cells were cultured in complete medium (DMEM supplemented with 10% heat-inactivated FBS, 3 mM glutamine and antibiotics (100 U/mL penicillin and 100 U/mL streptomycin)) at 37 °C in a humidified incubator containing 5% CO2 and 95% air. Cells were treated with various concentrations of synthesised compounds for 30 min followed by stimulation with LPS ([…]).
Nitrite, a stable product of nitric oxide, was used to assess NO production. To study the effects of the isolated compounds on NO production, RAW264.7 cells were plated at 1 × 10^5 cells/well in a 96-well microplate and incubated overnight. The cells were pre-treated with various concentrations of the test compounds (3, 7.5, 10, 15, 30 or 100 µM) and further co-cultured with 1 µg/mL LPS for 24 h. Un-pre-treated and un-stimulated RAW 264.7 cells were conducted as the blank control group. At different time points, the supernatant (50 µL) was assayed with NO assay kit. The culture supernatant (50 µL) was mixed with an equal volume of the Griess reagent (1% sulphanilamide, 0.1% N-[1-naphthy] ethylenediamine dihydrochloride) and NO production were determined at 540 nm with an ELISAplate reader.
A general note: Nitrite, measured by Griess reagent, commonly stands in for NO production.

For data set [4], the system named is phosphorylation of p38 in RAW 264.7 cells. Put plainly: Western blot, LPS-induced phosphorylation of p38. It is filed as cell-based, mouse. Conditions: 30 µM, p < .01. As to the method: (§1) RAW 264.7 cells (5 × 10^5 cells/well) plated onto 6-well plates were incubated for 24 h and treated with 7.5, 15.0 or 30.0 µM of compound 6p for 30 min and then stimulated with […] of LPS for 24 h. The cells were collected and washed three times with ice-cold PBS. The cells were treated with a cell lysis buffer [50 mM Tris (pH 7.6), 150 mM NaCl, 5 mM EDTA (pH 8.0), 0.6% NP-40, 1 mM Na3VO4, 20 mM β-glycerophosphate, 1 mM phenylmethylsulfonyl fluoride, 2 mM p-nitrophenyl phosphate, and 1:25 Complete Mini Protease Inhibitor cocktail (Boehringer, Mannheim,Germany)] and kept on ice for 30 min. The cell lysates were centrifuged (12,000 g at 4 °C) for 5 min to obtain a cytosolic fraction. The protein concentration was determined by BCA protein assay kit (Beyotime, Haimen, China). Aliquots of the lysates were separated on 10% sodium dodecyl sulphate (SDS)-polyacrylamide gel electrophoresis (PAGE) and then electro blotted onto a polyvinylidene difluoride (PVDF) membrane. The blots were blocked with 5% (w/v) non-fat dry milk for 2 h at 37 °C, followed by incubation with specific primary antibody at 4 °C overnight. […] Blots were again washed with TTBS and the immune active proteins were detected using ECL plus (Thermo, USA). […] Results are expressed as the relative ratio of the specific band compared with the internal reference.

Data set [5] deals with phosphorylation of JNK in RAW 264.7 cells. Briefly: Western blot, LPS-induced phosphorylation of JNK. It is filed as cell-based, mouse. The protocol: as §1
In general terms: A western blot detects proteins with antibodies after separation by electrophoresis.

The structures appear in SMILES notation. Several values for one entry are separate records, joined by “and”; a condition that tells them apart may be missing. Identical values can stand only once.

The viability is the share of living cells, or the viability signal relative to a control. What is called inhibition is the share of the control response that was lost under treatment. Broadly, the melting point is the temperature of the solid-liquid transition. Molecule `COc1cc(Cn2c(=O)c3nnc(C(N)=O)n3c3ccccc32)cc(OC)c1OC` [6p, 5-(3,4,5-trimethoxybenzyl)-4-oxo-4,5-dihydro-[1,2, 4]triazolo[4,3-a]quinoxaline-1-carboxamide] gave a melting point of 286 to 288 °C. For the same molecule, the viability at 24 h, 30 µM in data set [1] worked out at 83.7 ± 1.53%. Further, the “% of oedema inhibition (% mean ± SD)” value in data set [2] (1 h) is on record as 37.01 ± 8.45%. Also, in data set [2] (3 h, 25 mg/kg), the “% of oedema inhibition (% mean ± SD)” value was 50.83% and 50.83 ± 3.47%. In data set [2] (5 h), the “% of oedema inhibition (% mean ± SD)” value is 38.24 ± 6.04%. In addition, the “inhibition of NO production” value in data set [3] (3 µM, p < .001 vs LPS alone) is reported as “significantly inhibit”. Also, in data set [3] (Mus musculus, RAW264.7, 10 µM, LPS 1 µg/mL, 24 h, read-out: NO inhibitory activity (% inhibition)), the inhibition at 10 µM was found to be 38.8%. In addition, the “phosphorylation of p38” value in data set [4] is “markedly diminished”. Moreover, the “phosphorylation of JNK” value in data set [5] (30 µM, p < .001) was “markedly diminished”. Besides, the “LPS-induced phosphorylation of JNK, concentration dependence” value in data set [5] (7.5, 15 and 30 µM) is on record as “concentration-dependent manner”.
